Results as given in the CheMixHub viscosity set.

Experiment: xn = mol fraction of the nth substance listed

C1CC[NH2+]C1.CCCCCCCC(=O)[O-] + CO
viscosity [mPa·s], 101 kPa
Settings	x1 = 0.1021	x1 = 0.2025	x1 = 0.3023	x1 = 0.3896	x1 = 0.5185	x1 = 0.5972	x1 = 0.7086	x1 = 0.7895	x1 = 0.844
293.15 K	4.58	7.4	10.73	14.46	22.6	28	38.68	47.37	55.2
298.15 K	3.6	6.53	10.37	13.1	19.44	24.57	33.84	41.18	48.18
303.15 K	3.6	6	8.9	10.82	15.84	20.9	27.67	34.45	38.6
308.15 K	4.08	5.69	8.64	10.07	15.33	19.02	24.21	29.56	33.63
313.15 K	4	5.4	7.17	9.15	13.26	15.69	21.37	25.39	28.41

O=S(=O)(Cl)Cl + [Cl-].[Cl-].[Cl-].[Cl-].[Sn+4]
298.15 K, 101 kPa
Settings	viscosity [mPa·s]
x1 = 0.268	0.7739
x1 = 0.563	0.7396
x1 = 0.795	0.7144

Cc1ccc(O)cc1 + Nc1ccccc1
viscosity [mPa·s], 101.33 kPa
Settings	x1 = 0.2696	x1 = 0.4987	x1 = 0.5914	x1 = 0.7696	x1 = 0.8857
298.15 K	6.95	10.7	12.4	14.4	14.5
323.15 K	2.93	3.97	4.26	4.62	4.71

O=S(=O)(Cl)Cl + C1CCCCC1
298.15 K, 101 kPa
Settings	viscosity [mPa·s]
x1 = 0.321	0.7303
x1 = 0.647	0.677
x1 = 0.797	0.6695

Cc1ccc(O)cc1 + CS(C)=O
viscosity [mPa·s], 101 kPa
Settings	x1 = 0.0702	x1 = 0.1453	x1 = 0.2257	x1 = 0.3119	x1 = 0.4047	x1 = 0.505	x1 = 0.5778	x1 = 0.7312	x1 = 0.8595
303.15 K	2.036	2.307	2.913	3.456	4.277	5.056	6.524	7.908	9.499
308.15 K	1.792	2.04	2.565	3.062	3.709	4.324	5.403	6.543	7.655
313.15 K	1.604	1.833	2.293	2.698	3.24	3.769	4.649	5.745	6.083
318.15 K	1.476	1.668	2.054	2.417	2.857	3.328	4.01	4.945	5.111
